Test system: D5 Th1 T cell line
Experiment: nucleic acid expression profile of D5 Th1 T cell line stimulated with 500 nM ionomycin, 1 μM CsA plus ionomycin or 20 nM PMA plus ionomycin; 19K chip, second replicate
Format: cell-based, murine
Set-up: expression level of Msa.15983.0_f_at / expression level of Msa.1669.0_f_at / expression level of Msa.18713.0_g_at / expression level of D86609_s_at / expression level of TC19211_at / expression level of TC21156_at / expression level of TC24045_at / expression level of TC30384_g_at / expression level of TC3225_at / expression level of TC38978_at / expression level of TC39080_at / expression level of TC17495_at: unit not given here
Protocol: D5 or primary T cells from NFAT1−/− or wild type DO11.10 transgenic mice were stimulated for 2, 6 or 16 hours with 500 nM ionomycin, 20 nM PMA plus 500 nM ionomycin, or 1 μM CsA plus 500 nM ionomycin. Total RNA was isolated with an RNeasy kit (QIAGEN). Ten μg of total RNA was quantitatively amplified and biotin-labeled as described (Byrne et al., (2000) “Preparation of mRNA for Expression Monitoring” Current Protocols in Molecular Biology (John Wiley & Sons, Inc.) pp. 22.22.21-22.22.13). […] Chips were washed, stained with SA-PE and read using an Affymetrix GeneChip® scanner and accompanying gene expression software. Labeled bacterial RNAs of known concentration were spiked into each chip hybridization mix to generate an internal standard curve, allowing normalization between chips and conversion of raw hybridization intensity values to mRNA frequency (mRNA molecules per million).
Nucleic acid expression profiles were obtained from a T cell line at multiple time points and in various T cell states. The D5 Th1 T cell line was stimulated in three different ways: 1) ionomycin alone (e.g., causing the regulatory factor NFAT to move from the cytoplasm to the nucleus); 2) ionomycin+PMA (e.g., causing both NFAT and the transcription factor AP-1 to enter the nucleus); 3) ionomycin +cyclosporin A (CsA) (e.g., preventing NFAT from entering the nucleus in response to ionomycin). […] Cells were stimulated for 0, 2, 6, and 16 hours. […] The experiment was done twice (i.e., with two replicates, Rep. 1 and Rep. 2). Nucleic acid expression at the 2, 6 and 16 hour timepoints was compared to nucleic acid expression at 0 hours.
The nucleic acid expression data was stored in a computer database. A database query was used to identify all nucleic acids that were deemed “increasing” or “decreasing” in response to ionomycin (relative to the 0 hour sample) in at least one timepoint in Rep. 1, and the nucleic acids were also deemed “increasing” or “decreasing” in response to ionomycin in Rep. 2.
To test the hypothesis that NFAT in the absence of AP-1 and NFKB induced a genetic program of anergy, genes induced in D5 T cells by ionomycin stimulation alone were evaluated (FIGS. 1, 2 and 6). Samples from D5 cells stimulated with ionomycin plus CsA, which blocks anergy induction, and ionomycin plus PMA, which pharmacologically mimic complete stimulation through the TCR and CD28 were included. RNA was prepared from unstimulated D5 T cells and from cells stimulated for 2, 6 or 16 h under these three conditions, and gene transcription profiles were evaluated using Affymetrix oligonucleotide arrays (FIG. 6A).

`C[C@H](CCC(=O)O)C[C@H](C)C[C@H](C)C(=O)/C=C(\O)[C@H](C)C[C@H](C)C/C=C/[C@@H](C)[C@@H](O)[C@@H](C)[C@@H](O)C[C@@H]1CC[C@@](C)([C@H]2CC[C@@](C)([C@@H](C)O)O2)O1` [Ionomycin, ionomycin] was tested, and the “expression level of D86609_s_at” value (2 h) was 34, the “expression level of ET63436_at” value (2 h) was 113 and the “expression level of MIP1-B_at” value (2 h) was 110.5. For the same compound, the “expression level of Msa.11439.0_s_at” value (2 h) was 19, the “expression level of Msa.15983.0_f_at” value (2 h) was 44 and the “expression level of Msa.1669.0_f_at” value (2 h) was 27. For the same compound, the “expression level of Msa.18713.0_g_at” value (2 h) was 83, the “expression level of Msa.21745.0_s_at” value (2 h) was 8 and the “expression level of TC3225_at” value (2 h) was 34. The “expression level of TC14671_g_at” value (2 h) was 7, the “expression level of TC16364_at” value (2 h) was 4 and the “expression level of TC16828_at” value (2 h) was 4. The “expression level of TC17132_at” value (2 h) was 121, the “expression level of TC17495_at” value (2 h) was 9 and the “expression level of TC17558_at” value (2 h) was 41. The “expression level of TC18221_at” value (2 h) was 9, the “expression level of TC19211_at” value (2 h) was 48 and the “expression level of TC21156_at” value (2 h) was 20. For the same compound, the “expression level of TC23346_s_at” value (2 h) was 5, the “expression level of TC23450_s_at” value (2 h) was 16 and the “expression level of TC24045_at” value (2 h) was 15. The “expression level of TC24067_at” value (2 h) was 9, the “expression level of TC25965_at” value (2 h) was 42 and the “expression level of TC27326_g_at” value (2 h) was 3. The “expression level of TC29889_at” value (2 h) was 11, the “expression level of TC30384_g_at” value (2 h) was 39 and the “expression level of TC30935_at” value (2 h) was 93. For the same compound, the “expression level of TC30992_s_at” value (2 h) was 28, the “expression level of TC31681_at” value (2 h) was 56 and the “expression level of TC33206_at” value (2 h) was 45. For the same compound, the “expression level of TC33833_at” value (2 h) was 23, the “expression level of TC34186_at” value (2 h) was 40 and the “expression level of TC36089_at” value (2 h) was 156. For the same compound, the “expression level of TC36583_at” value (2 h) was 29, the “expression level of TC37631_at” value (2 h) was 18 and the “expression level of TC38094_at” value (2 h) was 18. For the same compound, the “expression level of TC38978_at” value (2 h) was 6, the “expression level of TC39012_at” value (2 h) was 64 and the “expression level of TC39080_at” value (2 h) was 14. For the same compound, the “expression level of TC39762_at” value (2 h) was 16, the “expression level of TC40487_g_at” value (2 h) was 16 and the “expression level of TC41014_at” value (2 h) was 23. For the same compound, the “expression level of U44731_s_at” value (2 h) was 69, the “expression level of X67914_s_at” value (2 h) was 53 and the “expression level of Z31202_s_at” value (2 h) was 10. The “expression level of aa144045_s_at” value (2 h) was 24, the “expression level of aa174748_at” value (2 h) was 31 and the “expression level of c81206_rc_at” value (2 h) was 15. The “expression level of k00083_s_at” value (2 h) was 41, the “expression level of x12531_s_at” value (2 h) was 68 and the “expression level of D86609_s_at” value (6 h) was 34. The “expression level of ET63436_at” value (6 h) was 60, the “expression level of MIP1-B_at” value (6 h) was 85.5 and the “expression level of Msa.11439.0_s_at” value (6 h) was 22. For the same compound, the “expression level of Msa.15983.0_f_at” value (6 h) was 60, the “expression level of Msa.1669.0_f_at” value (6 h) was 32 and the “expression level of Msa.18713.0_g_at” value (6 h) was 58. The “expression level of Msa.21745.0_s_at” value (6 h) was 12, the “expression level of TC3225_at” value (6 h) was 22 and the “expression level of TC14671_g_at” value (6 h) was 15. The “expression level of TC16364_at” value (6 h) was 5, the “expression level of TC16828_at” value (6 h) was 17 and the “expression level of TC17132_at” value (6 h) was 155. For the same compound, the “expression level of TC17495_at” value (6 h) was 12, the “expression level of TC17558_at” value (6 h) was 57 and the “expression level of TC18221_at” value (6 h) was 17. The “expression level of TC19211_at” value (6 h) was 22, the “expression level of TC21156_at” value (6 h) was 25 and the “expression level of TC23346_s_at” value (6 h) was 12. For the same compound, the “expression level of TC23450_s_at” value (6 h) was 21, the “expression level of TC24045_at” value (6 h) was 15 and the “expression level of TC24067_at” value (6 h) was 19. For the same compound, the “expression level of TC25965_at” value (6 h) was 35, the “expression level of TC27326_g_at” value (6 h) was 4 and the “expression level of TC29889_at” value (6 h) was 10. For the same compound, the “expression level of TC30384_g_at” value (6 h) was 29, the “expression level of TC30935_at” value (6 h) was 60 and the “expression level of TC30992_s_at” value (6 h) was 9. The “expression level of TC31681_at” value (6 h) was 31, the “expression level of TC33206_at” value (6 h) was 19 and the “expression level of TC33833_at” value (6 h) was 23. For the same compound, the “expression level of TC34186_at” value (6 h) was 38, the “expression level of TC36089_at” value (6 h) was 149 and the “expression level of TC36583_at” value (6 h) was 26. The “expression level of TC37631_at” value (6 h) was 12, the “expression level of TC38094_at” value (6 h) was 10 and the “expression level of TC38978_at” value (6 h) was 3. For the same compound, the “expression level of TC39012_at” value (6 h) was 42, the “expression level of TC39080_at” value (6 h) was 11 and the “expression level of TC39762_at” value (6 h) was 15. For the same compound, the “expression level of TC40487_g_at” value (6 h) was 8, the “expression level of TC41014_at” value (6 h) was 18 and the “expression level of U44731_s_at” value (6 h) was 54. For the same compound, the “expression level of X67914_s_at” value (6 h) was 39, the “expression level of Z31202_s_at” value (6 h) was 17 and the “expression level of aa144045_s_at” value (6 h) was 17. For the same compound, the “expression level of aa174748_at” value (6 h) was 19, the “expression level of c81206_rc_at” value (6 h) was 13 and the “expression level of k00083_s_at” value (6 h) was 45. The “expression level of x12531_s_at” value (6 h) was 49, the “expression level of D86609_s_at” value (16 h) was 45 and the “expression level of ET63436_at” value (16 h) was 107. The “expression level of MIP1-B_at” value (16 h) was 97.5, the “expression level of Msa.11439.0_s_at” value (16 h) was 36 and the “expression level of Msa.15983.0_f_at” value (16 h) was 56. The “expression level of Msa.1669.0_f_at” value (16 h) was 50, the “expression level of Msa.18713.0_g_at” value (16 h) was 49 and the “expression level of Msa.21745.0_s_at” value (16 h) was 12. The “expression level of TC3225_at” value (16 h) was 37, the “expression level of TC14671_g_at” value (16 h) was 30 and the “expression level of TC16364_at” value (16 h) was 10. The “expression level of TC16828_at” value (16 h) was 31, the “expression level of TC17132_at” value (16 h) was 126 and the “expression level of TC17495_at” value (16 h) was 12. For the same compound, the “expression level of TC17558_at” value (16 h) was 98, the “expression level of TC18221_at” value (16 h) was 25 and the “expression level of TC19211_at” value (16 h) was 22. For the same compound, the “expression level of TC21156_at” value (16 h) was 31, the “expression level of TC23346_s_at” value (16 h) was 13 and the “expression level of TC23450_s_at” value (16 h) was 22. The “expression level of TC24045_at” value (16 h) was 25, the “expression level of TC24067_at” value (16 h) was 31 and the “expression level of TC25965_at” value (16 h) was 50. For the same compound, the “expression level of TC27326_g_at” value (16 h) was 5, the “expression level of TC29889_at” value (16 h) was 13 and the “expression level of TC30384_g_at” value (16 h) was 53. The “expression level of TC30935_at” value (16 h) was 86, the “expression level of TC30992_s_at” value (16 h) was 12 and the “expression level of TC31681_at” value (16 h) was 22. The “expression level of TC33206_at” value (16 h) was 12, the “expression level of TC33833_at” value (16 h) was 23 and the “expression level of TC34186_at” value (16 h) was 50. The “expression level of TC36089_at” value (16 h) was 165, the “expression level of TC36583_at” value (16 h) was 31 and the “expression level of TC37631_at” value (16 h) was 29. The “expression level of TC38094_at” value (16 h) was 16, the “expression level of TC38978_at” value (16 h) was 8 and the “expression level of TC39012_at” value (16 h) was 77. The “expression level of TC39080_at” value (16 h) was 24, the “expression level of TC39762_at” value (16 h) was 37 and the “expression level of TC40487_g_at” value (16 h) was 13. For the same compound, the “expression level of TC41014_at” value (16 h) was 33, the “expression level of U44731_s_at” value (16 h) was 25 and the “expression level of X67914_s_at” value (16 h) was 36. The “expression level of Z31202_s_at” value (16 h) was 45, the “expression level of aa144045_s_at” value (16 h) was 22 and the “expression level of aa174748_at” value (16 h) was 21. For the same compound, the “expression level of c81206_rc_at” value (16 h) was 39, the “expression level of k00083_s_at” value (16 h) was 72 and the “expression level of x12531_s_at” value (16 h) was 84.

Reference: US20030064380A1, “Anergy-regulated molecules” (The Center For Blood Research, Inc., priority 2001, published 2003)
